Results reported in the SangsterLogP compilation.
Blank lines part the entries; values can stand above or below the compound they belong to. Where a SMILES comes first, the peptide text is derived from it.

Columns and labels:
[1] = method code RP-TLC, from DOI: 10.1016/s0021-9673(03)00617-4, PMID: 12830921
[2] = method code SF-HPLC, from DOI: 10.1016/j.bmc.2009.01.040, PMID: 19208447; conditions: pH 7.0
[3] = method code SF-HPLC, from DOI: 10.1016/0378-5173(89)90313-x; conditions: pH 7.4
[4] = method code SF-HPLC, from DOI: 10.1016/j.ejmech.2003.12.002, PMID: 15051170
[5] = not given; remark: listed apart in the source
[6] = method code SF-AS, from DOI: 10.1248/bpb1978.7.120, PMID: 6427444
[7] = method code SF-RC, from DOI: 10.1016/j.nucmedbio.2003.12.003, PMID: 15093819; conditions: pH 7.0
[8] = not given; remark: listed apart in the source
[9] = method code SF-RC, from DOI: 10.1016/0361-9230(85)90153-4, PMID: 2413968
[10] = method code SF, from DOI: 10.1002/ps.2780350215
[11] = method code SF-AS, from DOI: 10.1016/s0022-3565(25)38749-5, PMID: 8182532; conditions: pH 7.4
[12] = method code SF-GR, from DOI: 10.1016/s0022-3565(25)32611-x, PMID: 7230009
[13] = method code SF-AS, from PMID: 1586384
[14] = method code SF-RC, from DOI: 10.1016/j.bmc.2006.11.022, PMID: 17293116; conditions: pH 7.4
[15] = not given; remark: listed apart in the source
[16] = not given; remark: listed apart in the source
[17] = method code SF-RC, from DOI: 10.1002/jlcr.1076; conditions: pH 7.4
[18] = method code SF, from DOI: 10.1016/j.nucmedbio.2007.12.009, PMID: 18355686; conditions: pH 7.4
[19] = method code SF-AS, from DOI: 10.1016/s0014-827x(98)00024-x, PMID: 9679281
[20] = method code SF-HPLC, from DOI: 10.1002/jps.2600800905, PMID: 1800703
[21] = method code SF-RC, from DOI: 10.1016/j.nucmedbio.2005.06.001, PMID: 16253804; conditions: pH 7.4
[22] = method code SF-AS, from DOI: 10.1016/j.bmc.2007.10.035, PMID: 18029186; conditions: pH 7.4
[23] = method code SF-RC, from DOI: 10.1016/j.nucmedbio.2016.01.003, PMID: 27067043; conditions: pH 7.4
[24] = method code SF-AS, from DOI: 10.1016/s0022-5347(24)07568-2, PMID: 4149453; conditions: pH 7.5
[25] = method code SF-AS, from DOI: 10.1016/j.arabjc.2011.11.013
[26] = method code SF-RC, from DOI: 10.1016/j.bmc.2015.06.036, PMID: 26145817; conditions: pH 7.4

logP [1]: 3.62
Structure (SMILES): CCC12C=C(C(=O)OCCO)n3c4c(c5ccccc53)CCN(CCC1)C42 (stereo not drawn)

logD [2]: 0.78
Structure (SMILES): CC(C(=O)OCC(O)C(O)C(O)C(O)CO)c1cccc(C(=O)c2ccccc2)c1 (stereo not drawn)

logP [4]: 1.41
Structure (SMILES): COC(=O)C(C)NP(=O)(OCC1C=CC(n2cc(C)c(=O)[nH]c2=O)O1)Oc1cc(Cl)ccc1Cl (stereo not drawn)

logP [5]: 3.11
Structure (SMILES): COC(=O)CN1CCN(C(COCc2cc(C(F)(F)F)cc(C(F)(F)F)c2)c2ccccc2)CC1 (stereo not drawn)

logP [6]: 1.89
Structure (SMILES): CO[C@@]12[C@H](COC(N)=O)C3=C(C(=O)C(C)=C(N)C3=O)N1C[C@H]1[C@@H]2N1C(=O)c1ccccc1

logD [7]: 2.09
Structure (SMILES): O=C(NCCc1ccc(S(=O)(=O)NC2CCCCC2)cc1)c1cc(Cl)ccc1OCCF

logP [9]: -2.15
Structure (SMILES): NC(=O)CC[C@@H]1NC(=O)[C@H](Cc2ccccc2)NC(=O)[C@H](Cc2ccc(O)cc2)NC(=O)[C@@H](N)CSSC[C@@H](C(=O)N2CCC[C@H]2C(=O)N[C@@H](CCCN=C(N)N)C(=O)NCC(N)=O)NC(=O)[C@H](CC(N)=O)NC1=O

logP [10]: 3.63
Structure (SMILES): CCc1cccc(CC)c1NC(=O)c1c(C)n(CCc2ccccc2)c(C)c(Br)c1=O

logD [11]: 4.8
Structure (SMILES): CC(C)CCC(=O)CC1c2ccccc2C(=O)N1c1ccc2ccc(Cl)nc2n1 (stereo not drawn)

logD [14]: 1.56
Structure (SMILES): COc1ccc2nc(-c3ccc4nc(-c5ccc(N)cc5)sc4c3)sc2c1

logP [15]: 3.68
Structure (SMILES): CC(C)NCC(COc1cccc2ccccc12)OC(=O)C1CC1 (stereo not drawn)

logD [2]: 1.26
Structure (SMILES): CC(C(=O)OCC(O)C(O)C(O)C(O)C=O)c1cccc(C(=O)c2ccccc2)c1 (stereo not drawn)

logD [18]: 2.99
Structure (SMILES): CC(=O)N(Cc1ccccc1OCCF)c1cnccc1Oc1ccccc1

logP [19]: 3.12
Structure (SMILES): S=c1[nH]nc(Cn2ccc3ccccc32)n1-c1cccc2ccccc12

logD ([20]; pH 2.0): 4.47
Structure (SMILES): CCC(C)(C)C(=O)O[C@H]1C[C@@H](C)C=C2C=C[C@H](C)[C@H](CC[C@@H](O)C[C@@H](O)CC(=O)O)[C@H]21 (relative stereo)

logD [7]: 2.15
Structure (SMILES): O=C(NCCc1ccc(S(=O)(=O)NC2CCCCC2)cc1)c1cc(I)ccc1OCCF

logP [5]: 3.2
Structure (SMILES): CN1CCN(C(COCc2cc(C(F)(F)F)cc(C(F)(F)F)c2)c2ccccc2)CC1 (stereo not drawn)

logD [17]: 2.5
Structure (SMILES): COc1ccc2c(c1)C1(C)CCC3c4ccc(O)c(I)c4CCC3C1C2 (stereo not drawn)

logD [24]: 1.69
Structure (SMILES): COC(=O)CC[C@H](NC(=O)c1cc(Cl)c(N(C)Cc2cnc3nc(N)nc(N)c3n2)c(Cl)c1)C(=O)OC

logP [19]: 3.78
Structure (SMILES): Cc1[nH]c2ccccc2c1Cc1nnc(Nc2cccc3ccccc23)s1

logP [15]: 3.52
Structure (SMILES): CC(C)NCC(COc1cccc2ccccc12)OC(=O)C(C)C (stereo not drawn)

logP [1]: 3.89
Structure (SMILES): CCC12C=C(C(=O)OCCCO)n3c4c(c5ccccc53)CCN(CCC1)C42 (stereo not drawn)

logD ([20]; pH 7.0): 3.85
Structure (SMILES): CC[C@H](C)C(=O)O[C@H]1CCC=C2C=C[C@H](C)[C@H](CC[C@@H]3C[C@@H](O)CC(=O)O3)[C@H]21

logD [21]: 2.05
Structure (SMILES): CNc1ccc(C=Cc2ccc(OCCOCCOCCOCCF)cc2)cc1

logP [4]: 0.76
Structure (SMILES): COC(=O)C(C)NP(=O)(OCC1C=CC(n2cc(C)c(=O)[nH]c2=O)O1)Oc1ccc(N(C)C)cc1 (stereo not drawn)

logD [18]: 4
Structure (SMILES): CCC(C)N(C)C(=O)c1cc2ccccc2c(-c2ccccc2Cl)n1 (stereo not drawn)

logD [14]: 2.48
Structure (SMILES): CNc1ccc(-c2nc3ccc(-c4nc5ccc(F)cc5s4)cc3s2)cc1

logP [10]: 2.52
Structure (SMILES): CCCCn1c(C)cc(=O)c(C(=O)Nc2c(CC)cccc2CC)c1C

logD [11]: 5.2
Structure (SMILES): CCCCCCCCCCOc1ccc(C(=O)Nc2cc(C(=O)NCCCC)ccc2SC)cc1

logD [24]: 0.98
Structure (SMILES): CCOC(=O)CC[C@H](NC(=O)c1ccc(N(C)Cc2cnc3nc(N)nc(N)c3n2)cc1)C(=O)OCC

More lines, now with the values behind:

Structure (SMILES): COc1cc2c(Nc3ccc(Cl)cc3F)ncnc2cc1OCCCN1CCN(C)CC1
logP: 3.3

Structure (SMILES): CN1C=CCC(C(=O)NC2CCC(OC(=O)CCCc3ccc(N(CCCl)CCCl)cc3)CC2)=C1 (stereo not drawn)
logD [3]: 2.85

Structure (SMILES): CC(=O)[C@@]1(C)CC[C@H]2[C@@H]3CCC4=CC(=O)CCC4=C3CC[C@@]21C
logP [8]: 4.34

Structure (SMILES): CC1(C)[C@H]2O[C@H]2[C@@H]2[C@]1(O)[C@H](O)[C@@H](O)C13C[C@@](C)(O)[C@@H](CC[C@@]1(O)[C@@]2(C)O)[C@@H]3O
logP [12]: -0.57

Structure (SMILES): CC(=O)OCOC(=O)c1cn2c3c(c(N4CCN(C)CC4)c(F)cc3c1=O)OCC2C (stereo not drawn)
logP [13]: 0.02

Structure (SMILES): CN1C=CCC(C(=O)NCCOC(=O)CCCc2ccc(N(CCCl)CCCl)cc2)=C1
logD [3]: 2.16

Structure (SMILES): CC1CC2C3CCC4=CC(=O)CCC4C3CCC2(C)C1C(=O)CF (stereo not drawn)
logP [16]: 4.66

Structure (SMILES): COc1ccc2c(c1)C1(C)CCC3c4cc(I)c(O)cc4CCC3C1C2 (stereo not drawn)
logD [17]: 1.8

Structure (SMILES): CC(C)C[C@H](NC(=O)[C@@H]1CCCN1C(=O)[C@@H](N)Cc1ccc(O)cc1)C(=O)NCC(N)=O (H-YPLG-NH2)
logP [9]: 0.06

Structure (SMILES): COc1cc2c(Nc3ccc(Cl)cc3F)ncnc2cc1OCCCN1CCOCC1
logP: 3.6

Structure (SMILES): CO[C@@]12[C@H](COC(N)=O)C3=C(C(=O)C(C)=C(N)C3=O)N1C[C@H]1[C@@H]2N1Cc1ccccc1 (stereo partly drawn)
logP [6]: 1.59

Structure (SMILES): CNc1ccc(C=Cc2ccc(OCCOCCOCCOCCOCCF)cc2)cc1
logD [21]: 2.28

Structure (SMILES): CC(=O)NC1C(OCCN(C)C(=O)Cn2ccnc2[N+](=O)[O-])OC(COC(C)=O)C(OC(C)=O)C1OC(C)=O (stereo not drawn)
logD [22]: -1.29

Structure (SMILES): C=CC(=O)Nc1ccc(S(=O)(=O)N2CCN(C(=O)C34CC5CC(CC(C5)C3)C4)CC2)cc1
logD [23]: 2.67

Structure (SMILES): CC1CC2C3CCC4=CC(=O)CCC4C3CCC2(C)C1C(=O)CO (stereo not drawn)
logP [16]: 4.02

Structure (SMILES): O=C(CNc1ccc([N+](=O)[O-])cc1)Nc1ccc(Cl)cc1C(=O)c1ccccc1
logP [25]: 4.68

Structure (SMILES): CC(=O)OC(C)OC(=O)c1cn2c3c(c(N4CCN(C)CC4)c(F)cc3c1=O)OCC2C (stereo not drawn)
logP [13]: 0.26

Structure (SMILES): CCN(CCCCF)c1cc(C)nc2c(-c3ccc(Cl)cc3Cl)c(C)nn12
logD [26]: 2.81

Structure (SMILES): CCN(CCOCCF)c1cc(C)nc2c(-c3ccc(Cl)cc3Cl)c(C)nn12
logD [26]: 3.8

Structure (SMILES): Nc1ccc(S(=O)(=O)NCC(=O)Nc2ccc(Cl)cc2C(=O)c2ccccc2)cc1
logP [25]: 3.24

Structure (SMILES): CC1(C)[C@@H](O)C[C@H]2[C@](C)(O)[C@@H]3CC[C@@H]4[C@@H](O)[C@@]3(C[C@@H](O)[C@@]21O)C[C@@]4(C)O
logP [12]: 0.27

Structure (SMILES): CC(=O)OCC1OC(OCCN(C)C(=O)n2ccnc2[N+](=O)[O-])C(OC(C)=O)C(OC(C)=O)C1OC(C)=O (stereo not drawn)
logD [22]: -0.98

Structure (SMILES): CC#CC1(O)CC[C@H]2[C@@H]3CCC4=CC(=O)CCC4=C3C(c3ccc(N(C)C)cc3)C[C@@]21C (stereo partly drawn)
logP [8]: 4.69
